Experimental data: patent publication US20260262643A1, “HERBICIDAL BENZOXAZINES” (FMC CORPORATION, priority 2022, published 2026)

Legend:
blackgrass [1] = assay: Test C preemergence; type: in vivo, Alopecurus myosuroides; settings: 0 to 100 scale (0 no effect, 100 complete control)
In short: (§1)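 Seeds in loam–sand blend received preemergence directed soil spray of test chemicals in non-phytotoxic solvent with surfactant; postemergence treatment was applied at one- to two-leaf stage (2–10 cm). After 10 days in greenhouse, injury rated visually versus untreated controls, 0 (no effect) to 100 (complete control).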

ragweed [2] = assay: Test C preemergence; type: in vivo, Ambrosia artemisiifolia; settings: 0 to 100 scale (0 no effect, 100 complete control)
In short: as §1

oat, wild [3] = assay: Test C postemergence; type: in vivo, Avena fatua; settings: 10 days
In short: as §1

rice = assay: Test D flooded paddy test; type: in vivo, Oryza sativa; settings: 250 g ai/ha, applied to paddy water, visual rating after 13 to 14 days, scale 0 to 100 (0 no effect, 100 complete control)
In short: (§2)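 Rating scale 0–100 (0 no effect, 100 complete control), visual, versus controls. Readout at 13–14 days after in-water application to 2-leaf plants in pots flooded 3 cm deep.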

green foxtail [4] = assay: Test C postemergence; type: in vivo, Setaria viridis; settings: 10 days
In short: as §1

soybean [5] = assay: Test C postemergence; type: in vivo, Glycine max; settings: 10 days
In short: as §1

oat, wild [6] = assay: Test C preemergence; type: in vivo, Avena fatua; settings: 0 to 100 scale (0 no effect, 100 complete control)
In short: as §1

ryegrass, Italian [7] = assay: Test C preemergence; type: in vivo, Lolium multiflorum; settings: 0 to 100 scale (0 no effect, 100 complete control)
In short: as §1

corn [8] = assay: Test C preemergence; type: in vivo, Zea mays; settings: 0 to 100 scale (0 no effect, 100 complete control)
In short: as §1

ducksalad = assay: Test D flooded paddy test; type: in vivo, Heteranthera limosa; settings: 250 g ai/ha, applied to paddy water, visual rating after 13 to 14 days, scale 0 to 100 (0 no effect, 100 complete control)
In short: as §2

galium = assay: Test C postemergence; type: in vivo, Galium aparine; settings: 10 days
In short: as §1

kochia [9] = assay: Test C postemergence; type: in vivo, Bassia scoparia; settings: 10 days
In short: as §1

sedge, umbrella = assay: Test D flooded paddy test; type: in vivo, Cyperus difformis; settings: 250 g ai/ha, applied to paddy water, visual rating after 13 to 14 days, scale 0 to 100 (0 no effect, 100 complete control)
In short: as §2

ragweed [10] = assay: Test C postemergence; type: in vivo, Ambrosia artemisiifolia; settings: 10 days
In short: as §1

barnyardgrass [11] = assay: Test C postemergence; type: in vivo, Echinochloa crusgalli; settings: 10 days
In short: as §1

soybean [12] = assay: Test C preemergence; type: in vivo, Glycine max; settings: 0 to 100 scale (0 no effect, 100 complete control)
In short: as §1

ryegrass, Italian [13] = assay: Test C postemergence; type: in vivo, Lolium multiflorum; settings: 10 days
In short: as §1

pigweed, palmer [14] = assay: Test C preemergence; type: in vivo, Amaranthus palmeri; settings: 0 to 100 scale (0 no effect, 100 complete control)
In short: as §1

horseweed = assay: Test C postemergence; type: in vivo, Erigeron canadensis; settings: 10 days
In short: as §1

green foxtail [15] = assay: Test C preemergence; type: in vivo, Setaria viridis; settings: 0 to 100 scale (0 no effect, 100 complete control)
In short: as §1

blackgrass [16] = assay: Test C postemergence; type: in vivo, Alopecurus myosuroides; settings: 10 days
In short: as §1

barnyardgrass [17] = assay: Test C preemergence; type: in vivo, Echinochloa crusgalli; settings: 0 to 100 scale (0 no effect, 100 complete control)
In short: as §1

pigweed, palmer [18] = assay: Test C postemergence; type: in vivo, Amaranthus palmeri; settings: 10 days
In short: as §1

barnyardgrass [19] = assay: Test D flooded paddy test; type: in vivo, Echinochloa crus-galli; settings: 250 g ai/ha, applied to paddy water, visual rating after 13 to 14 days, scale 0 to 100 (0 no effect, 100 complete control)
In short: as §2

kochia [20] = assay: Test C preemergence; type: in vivo, Bassia scoparia; settings: 0 to 100 scale (0 no effect, 100 complete control)
In short: as §1

wheat [21] = assay: Test C preemergence; type: in vivo, Triticum aestivum; settings: 0 to 100 scale (0 no effect, 100 complete control)
In short: as §1

corn [22] = assay: Test C postemergence; type: in vivo, Zea mays; settings: 10 days
In short: as §1

wheat [23] = assay: Test C postemergence; type: in vivo, Triticum aestivum; settings: 10 days
In short: as §1

[24] = Preemergence, 500 g ai/ha, visual rating after 10 days
[25] = Test C, preemergence, 125 g ai/ha
[26] = 125 g ai/ha, postemergence, 0 to 100 scale, 0 no effect, 100 complete control
[27] = Postemergence, 500 g ai/ha, visual 0 to 100 scale (0 no effect, 100 complete control)

Cc1cc(-n2cnc(C(C)C)n2)cc(C(=O)N2C[C@H](C)Oc3c(Cl)cccc32)c1Cl [Compound 220]
Plant response rating, Blackgrass (blackgrass [1]; [24]): 70 | Blackgrass plant response rating (blackgrass [1]; [25]): 40 | Plant response rating, Ragweed (ragweed [2]; [24]): 0 | Ragweed plant response rating (ragweed [2]; [25]): 0 | Plant response rating, Oat, Wild (oat, wild [3]; [26]): 0 | Plant response rating, Oat, Wild (oat, wild [3]; [27]): 0 | Plant response rating, Rice (Flood) (rice): 0 | Plant response rating, Foxtail, Green (green foxtail [4]; [26]): 20 | Plant response rating, Foxtail, Green (green foxtail [4]; [27]): 50 | Plant response rating, Soybean (soybean [5]; [26]): 100 | Plant response rating, Soybean (soybean [5]; [27]): 100 | Plant response rating, Oat, Wild (oat, wild [6]; [24]): 70 | Oat, Wild plant response rating (oat, wild [6]; [25]): 60 | Plant response rating, Ryegrass, Italian (ryegrass, Italian [7]; [24]): 90 | Ryegrass, Italian plant response rating (ryegrass, Italian [7]; [25]): 80 | Plant response rating, Corn (corn [8]; [24]): 10 | Corn plant response rating (corn [8]; [25]): 0 | Plant response rating, Ducksalad (Flood) (ducksalad): 0 | Plant response rating, Galium (galium; [26]): 100 | Plant response rating, Galium (galium; [27]): 100 | Plant response rating, Kochia (kochia [9]; [26]): 70 | Plant response rating, Kochia (kochia [9]; [27]): 90 | Plant response rating, Sedge, Umbrella (Flood) (sedge, umbrella): 0 | Plant response rating, Ragweed (ragweed [10]; [26]): 0 | Plant response rating, Ragweed (ragweed [10]; [27]): 0 | Plant response rating, Barnyardgrass (barnyardgrass [11]; [26]): 30 | Plant response rating, Barnyardgrass (barnyardgrass [11]; [27]): 90 | Plant response rating, Soybean (soybean [12]; [24]): 80 | Soybean plant response rating (soybean [12]; [25]): 0 | Plant response rating, Ryegrass, Italian (ryegrass, Italian [13]; [26]): 30 | Plant response rating, Ryegrass, Italian (ryegrass, Italian [13]; [27]): 70 | Plant response rating, Pigweed, Palmer (pigweed, palmer [14]; [24]): 100 | Pigweed, Palmer plant response rating (pigweed, palmer [14]; [25]): 90 | Plant response rating, Horseweed (horseweed; [26]): 60 | Plant response rating, Horseweed (horseweed; [27]): 30 | Plant response rating, Foxtail, Green (green foxtail [15]; [24]): 100 | Foxtail, Green plant response rating (green foxtail [15]; [25]): 100 | Plant response rating, Blackgrass (blackgrass [16]; [26]): 40 | Plant response rating, Blackgrass (blackgrass [16]; [27]): 50 | Plant response rating, Barnyardgrass (barnyardgrass [17]; [24]): 80 | Barnyardgrass plant response rating (barnyardgrass [17]; [25]): 50 | Plant response rating, Pigweed, Palmer (pigweed, palmer [18]; [26]): 90 | Plant response rating, Pigweed, Palmer (pigweed, palmer [18]; [27]): 100 | Plant response rating, Barnyardgrass (Flood) (barnyardgrass [19]): 0 | Plant response rating, Kochia (kochia [20]; [24]): 90 | Kochia plant response rating (kochia [20]; [25]): 80 | Plant response rating, Wheat (wheat [21]; [24]): 70 | Wheat plant response rating (wheat [21]; [25]): 20 | Plant response rating, Corn (corn [22]; [26]): 10 | Plant response rating, Corn (corn [22]; [27]): 20 | Plant response rating, Wheat (wheat [23]; [26]): 20 | Plant response rating, Wheat (wheat [23]; [27]): 20
